# According to PubChem BioAssay AID330 (DTP/NCI, 2004):
# Several values for one entry are separate records, joined by “and”; a condition that tells them apart may be missing. Equal values may be shown once. Inconclusive results and toxic doses are left out.
# System: P388 leukemia ip, CD2F1 mice, survival T/C
# Experiment: NCI In Vivo Anticancer Drug Screen. Data for tumor model P388 Leukemia (intraperitoneal) in CD2F1 (CDF1) mice
# Conditions: endpoint: median survival time, higher = longer survival
# In short: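 Mice carrying the transplanted tumor received test compound or vehicle. Survival was recorded in each group, and the value is the treated-group measurement divided by that of the vehicle-treated control group.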
# [1] = dose: 50.0 mg/kg/injection, schedule: Q01DX009 (ip), vehicle: saline
# [2] = dose: 100.0 mg/kg/injection, schedule: Q01DX009 (ip), vehicle: saline
# [3] = dose: 12.5 mg/kg/injection, schedule: Q01DX005 (ip), vehicle: Klucel (hydroxypropylcellulose) (HPC)
# [4] = dose: 25.0 mg/kg/injection, schedule: Q01DX005 (ip), vehicle: Klucel (hydroxypropylcellulose) (HPC)
# [5] = dose: 50.0 mg/kg/injection, schedule: Q01DX009 (ip), vehicle: saline with Tween-80
# [6] = dose: 100.0 mg/kg/injection, schedule: Q01DX009 (ip), vehicle: saline with Tween-80
# [7] = dose: 200.0 mg/kg/injection, schedule: Q01DX009 (ip), vehicle: saline with Tween-80
# [8] = dose: 60.0 mg/kg/injection, schedule: Q01DX005 (ip), vehicle: saline with Tween-80
# [9] = dose: 120.0 mg/kg/injection, schedule: Q01DX005 (ip), vehicle: saline with Tween-80
# [10] = dose: 240.0 mg/kg/injection, schedule: Q01DX005 (ip), vehicle: saline with Tween-80
# [11] = dose: 100.0 mg/kg/injection, schedule: Q04DX002 (ip), vehicle: saline with Tween-80
# [12] = dose: 200.0 mg/kg/injection, schedule: Q04DX002 (ip), vehicle: saline with Tween-80
# [13] = dose: 400.0 mg/kg/injection, schedule: Q04DX002 (ip), vehicle: saline with Tween-80
# [14] = dose: 25.0 mg/kg/injection, schedule: Q01DX009 (ip), vehicle: saline
# [15] = dose: 100.0 mg/kg/injection, schedule: Q04DX003 (ip), vehicle: saline with Tween-80
smiles,measurement,setting,value
COc1cc2c(=O)n3c4c(cccc4c2cc1OC)CC3,T/C,"dose: 25.0 mg/kg/injection, schedule: Q01DX009 (ip), vehicle: other",98 % of control
same,T/C,"dose: 50.0 mg/kg/injection, schedule: Q01DX009 (ip), vehicle: other",91 % of control
same,T/C,"dose: 100.0 mg/kg/injection, schedule: Q01DX009 (ip), vehicle: other",91 % of control
same,T/C,"dose: 200.0 mg/kg/injection, schedule: Q01DX009 (ip), vehicle: other",89 % of control
same,T/C,"dose: 400.0 mg/kg/injection, schedule: Q01DX009 (ip), vehicle: other",96 % of control
O=c1[nH]c(=O)c2nc3c([N+](=O)[O-])ccc(-c4cccc5ccccc45)c3nc2[nH]1,T/C,[1],109 % of control
same,T/C,[2],100 % of control
CN(C)CCCOc1ccccc1NC1=C(Cl)C(=O)C(Nc2ccccc2OCCCN(C)C)=C(Cl)C1=O,T/C,"dose: 6.25 mg/kg/injection, schedule: Q01DX005 (ip), vehicle: Klucel (hydroxypropylcellulose) (HPC)",108 % of control
same,T/C,[3],99 % of control
same,T/C,[4],97 % of control
O=C(C=C(C(F)(F)Cl)C(F)(F)Cl)c1cccs1,T/C,"dose: 2.5 mg/kg/injection, schedule: Q04DX003 (ip), vehicle: saline",95 % of control
same,T/C,"dose: 5.0 mg/kg/injection, schedule: Q04DX003 (ip), vehicle: saline",100 % of control
same,T/C,"dose: 10.0 mg/kg/injection, schedule: Q04DX003 (ip), vehicle: saline",100 % of control
COc1cccc(OC)c1N,T/C,[5],108 % of control
same,T/C,[6],108 % of control
same,T/C,[7],92 % of control
same,T/C,"dose: 400.0 mg/kg/injection, schedule: Q01DX009 (ip), vehicle: saline with Tween-80",90 % of control
COc1ccc(CCN2C(=O)C(=O)N(C)C2=O)cc1OC,T/C,"dose: 50.0 mg/kg/injection, schedule: Q01DX009 (ip), vehicle: Klucel (hydroxypropylcellulose) (HPC)",90 % of control
same,T/C,"dose: 100.0 mg/kg/injection, schedule: Q01DX009 (ip), vehicle: Klucel (hydroxypropylcellulose) (HPC)",96 % of control
same,T/C,"dose: 200.0 mg/kg/injection, schedule: Q01DX009 (ip), vehicle: Klucel (hydroxypropylcellulose) (HPC)",102 % of control
COc1cc(/C=C2\CCC/C(=C\c3ccc(OCC4CO4)c(OC)c3)C2=O)ccc1OCC1CO1 (stereo not drawn),T/C,[5],101 % of control
same,T/C,[6],95 % of control
same,T/C,[7],94 % of control
OCCc1cc(Cl)no1,T/C,"dose: 50.0 mg/kg/injection, schedule: Q01DX005 (ip), vehicle: saline with Tween-80",100 % of control
same,T/C,"dose: 100.0 mg/kg/injection, schedule: Q01DX005 (ip), vehicle: saline with Tween-80",102 % of control
same,T/C,"dose: 200.0 mg/kg/injection, schedule: Q01DX005 (ip), vehicle: saline with Tween-80",109 % of control
Fc1ccc(C(Nc2nncs2)Nc2nncs2)c(F)c1,T/C,[8],105 % of control
same,T/C,[9],96 % of control
same,T/C,[10],107 % of control
COC(=O)c1c(-c2ccc(OC)c(OC)c2)c(C=O)n(C)c1C,T/C,[11],99 % of control
same,T/C,[12],91 % of control
same,T/C,[13],90 % of control
N/C(=N\N=C\c1cccnc1)SCCCCBr,T/C,"dose: 0.78 mg/kg/injection, schedule: Q01DX001 (ip), vehicle: saline",100 % of control
same,T/C,"dose: 0.78 mg/kg/injection, schedule: Q01DX009 (ip), vehicle: saline",110 % of control
same,T/C,"dose: 1.56 mg/kg/injection, schedule: Q01DX001 (ip), vehicle: saline",101 % of control and 110 % of control
same,T/C,"dose: 3.12 mg/kg/injection, schedule: Q01DX001 (ip), vehicle: saline",110 % of control
C=C(C)C1C/C=C2/C(=O)OC(CC3(C)CC(=O)C(CC(=O)C1)O3)C2O (stereo not drawn),T/C,"dose: 4.0 mg/kg/injection, schedule: Q01DX009 (ip), vehicle: Klucel (hydroxypropylcellulose) (HPC)",101 % of control
same,T/C,"dose: 8.0 mg/kg/injection, schedule: Q01DX009 (ip), vehicle: Klucel (hydroxypropylcellulose) (HPC)",101 % of control
same,T/C,"dose: 16.0 mg/kg/injection, schedule: Q01DX009 (ip), vehicle: Klucel (hydroxypropylcellulose) (HPC)",104 % of control
same,T/C,"dose: 32.0 mg/kg/injection, schedule: Q01DX009 (ip), vehicle: Klucel (hydroxypropylcellulose) (HPC)",101 % of control
O=C1CN(CN2CCOCC2)C(=O)CN1CN1CCOCC1,T/C,[14],115 % of control
same,T/C,[1],114 % of control
CCOC(=O)C1(C(=O)OCC)C(C)CC(=O)N1c1ccccc1OC (stereo not drawn),T/C,[8],104 % of control
same,T/C,[9],100 % of control
same,T/C,[10],95 % of control
CCC(C)(C)c1cccc(C(=O)O)c1O,T/C,"dose: 25.0 mg/kg/injection, schedule: Q04DX003 (ip), vehicle: saline with Tween-80",100 % of control
same,T/C,"dose: 50.0 mg/kg/injection, schedule: Q04DX003 (ip), vehicle: saline with Tween-80",118 % of control
same,T/C,[15],106 % of control and 112 % of control
COC(=S)NC(=O)c1ccc(Cl)c(Cl)c1,T/C,"dose: 25.0 mg/kg/injection, schedule: Q01DX009 (ip), vehicle: saline with Tween-80",108 % of control
same,T/C,[5],107 % of control
same,T/C,[6],99 % of control
same,T/C,[7],110 % of control
CN=C1SC(C)(C)NN1C,T/C,[3],104 % of control
same,T/C,[4],104 % of control
same,T/C,"dose: 50.0 mg/kg/injection, schedule: Q01DX005 (ip), vehicle: Klucel (hydroxypropylcellulose) (HPC)",101 % of control and 114 % of control
COc1ccccc1C1COC(c2ccccc2)(c2ccccc2)S1 (stereo not drawn),T/C,[14],108 % of control
same,T/C,[1],108 % of control
same,T/C,[2],108 % of control
CNC(=O)c1ccccc1NC(=O)CCC(=O)O,T/C,"dose: 100.0 mg/kg/injection, schedule: Q04DX003 (ip), vehicle: saline",100 % of control
same,T/C,"dose: 200.0 mg/kg/injection, schedule: Q04DX003 (ip), vehicle: saline",99 % of control
same,T/C,"dose: 400.0 mg/kg/injection, schedule: Q04DX003 (ip), vehicle: saline",100 % of control
CCn1cc(C(=O)O)c(=O)c2nc(S(C)=O)sc21 (stereo not drawn),T/C,"dose: 15.0 mg/kg/injection, schedule: Q01DX005 (ip), vehicle: saline with Tween-80",103 % of control
same,T/C,"dose: 30.0 mg/kg/injection, schedule: Q01DX005 (ip), vehicle: saline with Tween-80",108 % of control
same,T/C,[8],123 % of control and 97 % of control
CCOC(=O)c1ccc(N(CCOS(C)(=O)=O)CCOS(C)(=O)=O)cc1,T/C,[5],190 % of control
same,T/C,[6],215 % of control
same,T/C,[15],154 % of control
same,T/C,"dose: 132.0 mg/kg/injection, schedule: Q04DX003 (ip), vehicle: saline with Tween-80",186 % of control
same,T/C,[7],95 % of control
same,T/C,"dose: 200.0 mg/kg/injection, schedule: Q04DX003 (ip), vehicle: saline with Tween-80",150 % of control and 195 % of control
same,T/C,"dose: 300.0 mg/kg/injection, schedule: Q04DX003 (ip), vehicle: saline with Tween-80",172 % of control
CCC(CC)COC(=O)c1ccccc1C(=O)OCC(CC)CC,T/C,[6],110 % of control and 96 % of control
same,T/C,[7],101 % of control and 117 % of control
O=C1NNC(c2ccccc2)=Nc2[nH]ncc21,T/C,[11],96 % of control
same,T/C,[12],93 % of control
same,T/C,[13],93 % of control
CCCCCCCC/C=C\CCCCCCCCSC1=CC(=O)C(OC)=C(OC)C1=O,T/C,"dose: 3.13 mg/kg/injection, schedule: Q01DX009 (ip), vehicle: Klucel (hydroxypropylcellulose) (HPC)",98 % of control
same,T/C,"dose: 6.25 mg/kg/injection, schedule: Q01DX009 (ip), vehicle: Klucel (hydroxypropylcellulose) (HPC)",96 % of control
same,T/C,"dose: 12.5 mg/kg/injection, schedule: Q01DX009 (ip), vehicle: Klucel (hydroxypropylcellulose) (HPC)",100 % of control
same,T/C,"dose: 25.0 mg/kg/injection, schedule: Q01DX009 (ip), vehicle: Klucel (hydroxypropylcellulose) (HPC)",103 % of control
COC(CNC(c1ccccc1)C(O)c1ccccc1)(OC)OC (stereo not drawn),T/C,"dose: 100.0 mg/kg/injection, schedule: Q01DX001 (ip), vehicle: saline with Tween-80",97 % of control
same,T/C,"dose: 200.0 mg/kg/injection, schedule: Q01DX001 (ip), vehicle: saline with Tween-80",97 % of control
same,T/C,"dose: 400.0 mg/kg/injection, schedule: Q01DX001 (ip), vehicle: saline with Tween-80",97 % of control
